Results reported in ChEMBL document CHEMBL5331108, “Design and Synthesis of 4-Fluorophenyl-5-methylene-2(5H)-furanone Derivatives as Potent Quorum Sensing Inhibitors” (J Med Chem, 2023).
In brackets after ≈: the same amount, converted by molar mass. Activity calls are given as the source filed them. The calls are words filed in the database; no cut-off is given here.

Experiments:
[1] = test system: Staphylococcus aureus; experiment: Antibacterial activity against methicillin-resistant Staphylococcus aureus ATCC43300 assessed as inhibition of bacterial growth incubated for 20 hrs by CLSI protocol based microdilution method; format: functional
[2] = test system: Bacillus subtilis; experiment: Antibacterial activity against penicillin-susceptible Bacillus subtilis ATCC9372 assessed as inhibition of bacterial growth incubated for 20 hrs by CLSI protocol based microdilution method; format: functional
[3] = test system: Bacillus pumilus; experiment: Antibacterial activity against penicillin-susceptible Bacillus pumilus CMCC63202 assessed as inhibition of bacterial growth incubated for 20 hrs by CLSI protocol based microdilution method; format: functional
[4] = test system: Staphylococcus aureus; experiment: Antibacterial activity against erthromycin-susceptible Staphylococcus aureus ATCC25923 assessed as inhibition of bacterial growth incubated for 20 hrs by CLSI protocol based microdilution method; format: functional
[5] = test system: Pseudomonas aeruginosa; experiment: Antibacterial activity against penicillin-susceptible Pseudomonas aeruginosa ATCC27853 assessed as inhibition of bacterial growth incubated for 20 hrs by CLSI protocol based microdilution method; format: functional
[6] = test system: Escherichia coli; experiment: Antibacterial activity against penicillin-susceptible Escherichia coli ATCC25922 assessed as inhibition of bacterial growth incubated for 20 hrs by CLSI protocol based microdilution method; format: functional
[7] = test system: Pseudomonas aeruginosa; experiment: Antibacterial activity against wild type Pseudomonas aeruginosa […] CGMCC1.12483 assessed as inhibition of bacterial growth incubated for 20 hrs by CLSI protocol based microdilution method; format: functional
[8] = test system: Pseudomonas aeruginosa; experiment: Inhibition of biofilm formation in Pseudomonas aeruginosa PAO1 at 32 ug/ml incubated for 20 hrs by crystal violet staining based analysis; format: functional; conditions: dose 32.0 µg/ml
[9] = test system: Pseudomonas aeruginosa; experiment: Antibacterial activity against Pseudomonas aeruginosa PAO1 assessed as inhibition of bacterial growth at 256 ug/ml measured after 25 hrs by absorbance based assay; format: functional, organism-based; conditions: dose 256.0 µg/ml
[10] = test system: Pseudomonas aeruginosa; experiment: Antibacterial activity against Pseudomonas aeruginosa 27853 assessed as inhibition of bacterial growth at 256 ug/ml measured after 25 hrs by absorbance based assay; format: functional, organism-based; conditions: dose 256.0 µg/ml
[11] = Inhibition of quorum sensing system in Pseudomonas aeruginosa PAO1 assessed as inhibition of rhamnolipid production at 102.4 ug/ml incubated for 24 hrs by absorbance based assay; conditions: dose 102.4 µg/ml
[12] = Inhibition of quorum sensing system in Pseudomonas aeruginosa PAO1 assessed as inhibition of pyocyanin production at 102.4 ug/ml incubated for 18 hrs by absorbance based assay; conditions: dose 102.4 µg/ml

SMILES | MIC [1] | MIC [2] | MIC [3] | MIC [4] | MIC [5] | MIC [6] | MIC [7] | inhibition [8] | Activity [9] | Activity [10] | inhibition [11] | inhibition [12]
C=C1OC(=O)C(CNC(=O)c2ccccc2C)=C1c1ccc(F)cc1 | 64 µg/mL (≈ 190 µM) | 128 µg/mL (≈ 379 µM) | 32 µg/mL (≈ 94.9 µM) | 32 µg/mL (≈ 94.9 µM) | > 512 µg/mL | > 512 µg/mL | > 512 µg/mL |  |  |  |  | 
C=C1OC(=O)C(CNC(=O)c2ccc(C)cc2)=C1c1ccc(-c2ccccc2)cc1 | > 512 µg/mL | > 512 µg/mL | > 512 µg/mL | > 512 µg/mL | > 512 µg/mL | > 512 µg/mL | > 512 µg/mL |  |  |  |  | 
C=C1OC(=O)C(CNC(=O)c2cccc(F)c2)=C1c1ccc(F)cc1 | > 512 µg/mL | > 512 µg/mL | > 512 µg/mL | > 512 µg/mL | > 512 µg/mL | > 512 µg/mL | > 512 µg/mL |  |  |  |  | 
O=C1C=C(Br)/C(=C/Br)O1 | 128 µg/mL (≈ 504 µM) | 64 µg/mL (≈ 252 µM) | 256 µg/mL (≈ 1010 µM) | 32 µg/mL (≈ 126 µM) | 256 µg/mL (≈ 1010 µM) | 256 µg/mL (≈ 1010 µM) | 128 µg/mL (≈ 504 µM) | Active | Active | Active | 44.9% | 
C=C1OC(=O)C(CNC(=O)c2ccc(C)cc2)=C1c1cccc(C(F)(F)F)c1 | > 512 µg/mL | > 512 µg/mL | > 512 µg/mL | > 512 µg/mL | > 512 µg/mL | > 512 µg/mL | > 512 µg/mL |  |  |  |  | 
C=C1OC(=O)C(CNC(=O)c2cccc(Br)c2)=C1c1ccc(F)cc1 | > 512 µg/mL | > 512 µg/mL | > 512 µg/mL | > 512 µg/mL | > 512 µg/mL | > 512 µg/mL | > 512 µg/mL |  |  |  |  | 
C=C1OC(=O)C(CNC(=O)CC)=C1c1ccc(F)cc1 | 256 µg/mL (≈ 930 µM) | 512 µg/mL (≈ 1860 µM) | 256 µg/mL (≈ 930 µM) | 128 µg/mL (≈ 465 µM) | > 512 µg/mL | > 512 µg/mL | 512 µg/mL (≈ 1860 µM) |  |  |  |  | 
C=C1OC(=O)C(CNC(=O)c2ccc(C)cc2)=C1c1ccccc1Br | > 512 µg/mL | > 512 µg/mL | > 512 µg/mL | > 512 µg/mL | > 512 µg/mL | > 512 µg/mL | > 512 µg/mL |  |  |  |  | 
C=C1OC(=O)C(CNC(=O)CCCCCCC)=C1c1ccc(F)cc1 | > 512 µg/mL | > 512 µg/mL | > 512 µg/mL | > 512 µg/mL | > 512 µg/mL | > 512 µg/mL | > 512 µg/mL |  |  |  |  | 
C=C1C(c2ccc(F)cc2)=C(CNC(=O)c2ccc(C)cc2)C(=O)N1CC | > 512 µg/mL | > 512 µg/mL | 512 µg/mL (≈ 1400 µM) | > 512 µg/mL | 64 µg/mL (≈ 176 µM) | > 512 µg/mL | 512 µg/mL (≈ 1400 µM) |  |  |  |  | 
C=C1OC(=O)C(CNC(=O)Cc2ccccc2)=C1c1ccc(F)cc1 | > 512 µg/mL | > 512 µg/mL | > 512 µg/mL | > 512 µg/mL | > 512 µg/mL | > 512 µg/mL | > 512 µg/mL |  |  |  |  | inactive
C=C1OC(=O)C(CNC(=O)c2ccccc2F)=C1c1ccc(F)cc1 | 128 µg/mL (≈ 375 µM) | > 512 µg/mL | > 512 µg/mL | > 512 µg/mL | > 512 µg/mL | > 512 µg/mL | > 512 µg/mL |  |  |  |  | 
C=C1OC(=O)C(CNC(=O)CCCCC)=C1c1ccc(F)cc1 | 256 µg/mL (≈ 807 µM) | 256 µg/mL (≈ 807 µM) | 256 µg/mL (≈ 807 µM) | 16 µg/mL (≈ 50.4 µM) | > 512 µg/mL | > 512 µg/mL | > 512 µg/mL |  |  |  |  | 
C=C1OC(=O)C(CNC(=O)c2ccccc2Br)=C1c1ccc(F)cc1 | 8 µg/mL (≈ 19.9 µM) | 16 µg/mL (≈ 39.8 µM) | > 512 µg/mL | > 512 µg/mL | > 512 µg/mL | > 512 µg/mL | > 512 µg/mL |  |  |  |  | 
C=C1OC(=O)C(CNC(=O)CCCCCCCCC)=C1c1ccc(F)cc1 | 512 µg/mL (≈ 1370 µM) | > 512 µg/mL | > 512 µg/mL | > 512 µg/mL | > 512 µg/mL | > 512 µg/mL | > 512 µg/mL |  |  |  |  | 
C=C1OC(=O)C(CNC(=O)c2ccccc2Cl)=C1c1ccc(F)cc1 | > 512 µg/mL | > 512 µg/mL | > 512 µg/mL | > 512 µg/mL | > 512 µg/mL | > 512 µg/mL | > 512 µg/mL |  |  |  |  | 
C=C1OC(=O)C(CNC(=O)c2ccc(C)cc2)=C1c1ccccc1 | > 512 µg/mL | > 512 µg/mL | > 512 µg/mL | > 512 µg/mL | > 512 µg/mL | > 512 µg/mL | > 512 µg/mL |  |  |  |  | 
C=C1C(c2ccc(F)cc2)=C(CNC(=O)c2ccc(C)cc2)C(=O)N1CCC | > 512 µg/mL | > 512 µg/mL | 512 µg/mL (≈ 1350 µM) | > 512 µg/mL | 256 µg/mL (≈ 676 µM) | > 512 µg/mL | 512 µg/mL (≈ 1350 µM) |  |  |  |  | 
